This passage reports TGI results from PubChem BioAssay (NCI).

Structures are written as SMILES.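 How tested: cells in 96-well plates exposed to compound for 48 hours at five concentrations. At the TGI there is no net growth.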

The subject of one assay is DLD-1 colon. The assay can be described thus: NCI tumour cell line growth inhibition, 48 h.
As to `ONc1ncnc2nc[nH]c12`, the TGI was > 100 µM.

Compound `CCS(=O)(=O)Nc1ccc(Nc2c3ccccc3nc3ccccc23)c(OC)c1` came in with a TGI of 17.3 µM.

`Cc1nc(N)nc(N)c1-c1ccc(Cl)c(Cl)c1` gave a TGI of 55 µM.

Compound `Cc1cccc2nc3c(C(=O)NCCN(C)C)cccc3cc12` yielded a TGI of 7.78 µM.

A further assay deals with HOP-18 NSCLC. The assay can be described thus: NCI tumour cell line growth inhibition, 48 h.
For the compound `CCCc1[nH]c(SCCCCCCCCSc2nc(-c3ccc(F)cc3)c(CCC)[nH]2)nc1-c1ccc(F)cc1`, the TGI was > 100 µM.

`CCS(=O)(=O)Nc1ccc(Nc2c3ccccc3nc3ccccc23)c(OC)c1` displayed a TGI of 7.92 µM.

Regarding `Cc1nc(N)nc(N)c1-c1ccc(Cl)c(Cl)c1`, the TGI was > 100 µM.

`Cc1cccc2nc3c(C(=O)NCCN(C)C)cccc3cc12`: the TGI turned out to be 6.64 µM.

For another assay, the system named is KM20L2 colon. The assay can be described thus: NCI tumour cell line growth inhibition, 48 h.
Consider `ONc1ncnc2nc[nH]c12`, for which the TGI was > 100 µM.

Turning to `CCCc1[nH]c(SCCCCCCCCSc2nc(-c3ccc(F)cc3)c(CCC)[nH]2)nc1-c1ccc(F)cc1`, the TGI is > 100 µM.

Turning to `CCS(=O)(=O)Nc1ccc(Nc2c3ccccc3nc3ccccc23)c(OC)c1`, the TGI is 6.44 µM.

Consider `Cc1nc(N)nc(N)c1-c1ccc(Cl)c(Cl)c1`, for which the TGI is > 100 µM.

Consider `Cc1cccc2nc3c(C(=O)NCCN(C)C)cccc3cc12`, for which the TGI turned out to be 4.98 µM.

The next assay concerns M19-MEL melanoma. Nature of the assay: NCI tumour cell line growth inhibition, 48 h.
`ONc1ncnc2nc[nH]c12`: the TGI was > 100 µM.

Consider `CCCc1[nH]c(SCCCCCCCCSc2nc(-c3ccc(F)cc3)c(CCC)[nH]2)nc1-c1ccc(F)cc1`, for which the TGI is > 100 µM.

The compound `CCS(=O)(=O)Nc1ccc(Nc2c3ccccc3nc3ccccc23)c(OC)c1` showed a TGI of 16.6 µM.

Take `Cc1nc(N)nc(N)c1-c1ccc(Cl)c(Cl)c1`: the TGI is > 100 µM.

Compound `Cc1cccc2nc3c(C(=O)NCCN(C)C)cccc3cc12` gave a TGI of 4.42 µM.

A further assay relates to P388 leukemia. Nature of the assay: NCI tumour cell line growth inhibition, 48 h.
As to `CCS(=O)(=O)Nc1ccc(Nc2c3ccccc3nc3ccccc23)c(OC)c1`, the TGI came out at 0.214 µM.

`Cc1cccc2nc3c(C(=O)NCCN(C)C)cccc3cc12`: the TGI is 11.7 µM.

A further assay concerns P388/ADR leukemia. The assay can be described thus: NCI tumour cell line growth inhibition, 48 h.
In the case of `CCS(=O)(=O)Nc1ccc(Nc2c3ccccc3nc3ccccc23)c(OC)c1`, the TGI amounted to 1.53 µM.

As for `Cc1cccc2nc3c(C(=O)NCCN(C)C)cccc3cc12`, the TGI amounted to 11.8 µM.

The test system of a further assay is SN12K1 renal. Nature of the assay: NCI tumour cell line growth inhibition, 48 h.
For `CCS(=O)(=O)Nc1ccc(Nc2c3ccccc3nc3ccccc23)c(OC)c1`, the TGI was 4.11 µM.

In the case of `Cc1cccc2nc3c(C(=O)NCCN(C)C)cccc3cc12`, the TGI was 5.26 µM.

For the next assay, the system named is SNB-78 CNS. The assay can be described thus: NCI tumour cell line growth inhibition, 48 h.
Consider `CCCc1[nH]c(SCCCCCCCCSc2nc(-c3ccc(F)cc3)c(CCC)[nH]2)nc1-c1ccc(F)cc1`, for which the TGI is > 100 µM.

In turn, `CCS(=O)(=O)Nc1ccc(Nc2c3ccccc3nc3ccccc23)c(OC)c1` yielded a TGI of 18.4 µM.

Consider `Cc1nc(N)nc(N)c1-c1ccc(Cl)c(Cl)c1`, for which the TGI is > 100 µM.

Compound `Cc1cccc2nc3c(C(=O)NCCN(C)C)cccc3cc12` showed a TGI of 12.6 µM.
